System: patients with relapsed/refractory immune thrombocytopenia
Experiment: Phase 1/2 study (NCT03395210) Part A, safety;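 further: adverse events graded by NCI CTCAE version 4.0, with worsening of pre-existing conditions counted as adverse events, analysed in the Safety Population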
Conditions: Safety Population; N = 60

CC(C)(C=C(C#N)C(=O)N1CCC[C@@H](n2nc(-c3ccc(Oc4ccccc4)cc3F)c3c(N)ncnc32)C1)N1CCN(C2COC2)CC1 [rilzabrutinib, (R)-2-[3-[4-amino-3-(2-fluoro-4-phenoxy-phenyl)pyrazolo[3,4-d]pyrimidin-1-yl]piperidine-1-carbonyl]-4-methyl-4-[4-(oxetan-3-yl)piperazin-1-yl]pent-2-enenitrile]
7 (12) number of patients (percent): Contusion, TEAEs Due to Any Cause, Grade 1
22 (37) number of patients (percent): Diarrhea, TEAEs Due to Any Cause, Any grade
16 (27) number of patients (percent): Diarrhea, Treatment-Related TEAEs, Grade 1
4 (7) number of patients (percent): Dyspepsia, TEAEs Due to Any Cause, Any grade
19 (32) number of patients (percent): Diarrhea, TEAEs Due to Any Cause, Grade 1 | Diarrhea, Treatment-Related TEAEs, Any grade
3 (5) number of patients (percent): Contusion, TEAEs Due to Any Cause, Grade 2 | Diarrhea, TEAEs Due to Any Cause, Grade 2 | Diarrhea, Treatment-Related TEAEs, Grade 2 | Dyspepsia, TEAEs Due to Any Cause, Grade 1
11 (18) number of patients (percent): Contusion, TEAEs Due to Any Cause, Any grade
12 (20) number of patients (percent): Fatigue, TEAEs Due to Any Cause, Any grade
2 (3) number of patients (percent): Costochondritis, TEAEs Due to Any Cause, Any grade | Costochondritis, TEAEs Due to Any Cause, Grade 1 | Cough, TEAEs Due to Any Cause, Any grade | Cough, TEAEs Due to Any Cause, Grade 1 | Dizziness, TEAEs Due to Any Cause, Any grade | Dizziness, TEAEs Due to Any Cause, Grade 1 | Dyspnea exertional, TEAEs Due to Any Cause, Any grade | Dyspnea exertional, TEAEs Due to Any Cause, Grade 1 | Dyspnea, TEAEs Due to Any Cause, Any grade | Dyspnea, TEAEs Due to Any Cause, Grade 1 | Edema, TEAEs Due to Any Cause, Any grade | Edema, TEAEs Due to Any Cause, Grade 1 | Epistaxis, TEAEs Due to Any Cause, Any grade | Epistaxis, TEAEs Due to Any Cause, Grade 1
10 (17) number of patients (percent): Fatigue, TEAEs Due to Any Cause, Grade 1
1 (2) number of patients (percent): Back pain, TEAEs Due to Any Cause, Grade 2 | Back pain, Treatment-Related TEAEs, Any grade | Back pain, Treatment-Related TEAEs, Grade 2 | Contusion, TEAEs Due to Any Cause, Grade 3/4 | Contusion, Treatment-Related TEAEs, Any grade | Contusion, Treatment-Related TEAEs, Grade 1 | Decreased appetite, TEAEs Due to Any Cause, Any grade | Decreased appetite, TEAEs Due to Any Cause, Grade 1 | Decreased appetite, Treatment-Related TEAEs, Any grade | Decreased appetite, Treatment-Related TEAEs, Grade 1 | Defecation urgency, TEAEs Due to Any Cause, Any grade | Defecation urgency, TEAEs Due to Any Cause, Grade 2 | Defecation urgency, Treatment-Related TEAEs, Any grade | Defecation urgency, Treatment-Related TEAEs, Grade 2 | Dyspepsia, TEAEs Due to Any Cause, Grade 2 | Dyspepsia, Treatment-Related TEAEs, Any grade | Dyspepsia, Treatment-Related TEAEs, Grade 1 | Edema, Treatment-Related TEAEs, Any grade | Edema, Treatment-Related TEAEs, Grade 1 | Epigastric discomfort, TEAEs Due to Any Cause, Any grade | Epigastric discomfort, TEAEs Due to Any Cause, Grade 2 | Epigastric discomfort, Treatment-Related TEAEs, Any grade | Epigastric discomfort, Treatment-Related TEAEs, Grade 2 | Erysipelas, TEAEs Due to Any Cause, Any grade | Erysipelas, TEAEs Due to Any Cause, Grade 2 | Erysipelas, Treatment-Related TEAEs, Any grade | Erysipelas, Treatment-Related TEAEs, Grade 2
5 (8) number of patients (percent): Conjunctival hemorrhage, TEAEs Due to Any Cause, Any grade | Conjunctival hemorrhage, TEAEs Due to Any Cause, Grade 1

Reference: patent US20250255874A1, “Methods for Treating Immune Thrombocytopenia By Administering (R)-2-[3-[4-Amino-3-(2-Fluoro-4-Phenoxy-Phenyl)Pyrazolo[3,4-D]Pyrimidin-1-YL]Piperidine-1-Carbonyl]-4-Methyl-4-[4-(Oxetan-3-YL)Piperazin-1-YL]Pent-2-Enentrile” (Principia Biopharma Inc., priority 2022, published 2025)
